From patent US20210079443A1, “INDICATOR BAC[…] SELECTING AND […] EFFICACY OF THERAPEUTICS AND METHODS FOR USING SAME” (priority 2018, published 2021)

Legend:
Assay in all cases: Phage-Mediated Detection of Staphylococcus aureus
Assay type in all cases: cell-based
[1] = tested on: Staphylococcus aureus strain AR0477 (MRSA, CDC Panel)
Experimental: (§1) Samples of methicillin-resistant S. aureus (MRSA) were primed by adding 135 μl of samples containing S. aureus to rich media. The rich media included sub-inhibitory antibiotic (cefoxitin) to allow for specific enrichment and induction of MRSA. Samples were incubated in rich media for 1-2 hours. Following the priming of the samples, additional cefoxitin was added to the media and samples were incubated for an additional 2 hours. Staphylococcus aureus-specific bacteriophage NanoLuc Indicator phage was added to the samples and incubated for 2 hours. Lysis buffer and NANO-GLO® reagent were added. Following 5 minutes of incubation, measurements of bioluminescence were taken using a GLOMAX® 96 instrument. A signal/background ratio ≥750 RLU indicated positive detection of S. aureus. A signal/background ratio of <750 RLU indicated the sample was negative for S. aureus.

[2] = tested on: Staphylococcus aureus strain AR0479 (MRSA, CDC Panel)
Experimental: as §1

[3] = tested on: Staphylococcus aureus strain 12600 (MSSA, ATCC)
Experimental: as §1

[4] = tested on: Staphylococcus aureus strain AR0484 (MSSA, CDC Panel)
Experimental: as §1

[5] = tested on: Staphylococcus aureus strain AR0491 (MSSA, CDC Panel)
Experimental: as §1

[6] = tested on: Staphylococcus aureus strain AR0482 (MRSA, CDC Panel)
Experimental: as §1

[7] = tested on: Staphylococcus aureus strain AR0470 (MRSA, CDC Panel)
Experimental: as §1

[8] = tested on: Staphylococcus aureus strain BAA-1720 (MRSA, ATCC); conditions: detected CFU 16, cefoxitin 1.8 ug/mL
Experimental: as §1

[9] = tested on: Staphylococcus aureus strain AR0476 (MRSA, CDC Panel)
Experimental: as §1

[10] = tested on: Staphylococcus aureus strain AR0488 (MSSA, CDC Panel)
Experimental: as §1

[11] = tested on: Staphylococcus aureus strain AR0490 (MSSA, CDC Panel)
Experimental: as §1

[12] = tested on: Staphylococcus aureus strain AR0472 (MRSA, CDC Panel)
Experimental: as §1

[13] = tested on: Staphylococcus aureus strain AR0467 (MRSA, CDC Panel)
Experimental: as §1

[14] = tested on: Staphylococcus aureus strain BAA-42 (MRSA, ATCC)
Experimental: as §1

[15] = tested on: Staphylococcus aureus strain AR0463 (MRSA, CDC Panel)
Experimental: as §1

[16] = tested on: Staphylococcus aureus strain AR0475 (MRSA, CDC Panel)
Experimental: as §1

[17] = tested on: Staphylococcus aureus strain AR0487 (MSSA, CDC Panel)
Experimental: as §1

[18] = tested on: Staphylococcus aureus strain AR0469 (MRSA, CDC Panel)
Experimental: as §1

[19] = tested on: Staphylococcus aureus strain AR0489 (MSSA, CDC Panel)
Experimental: as §1

[20] = tested on: Staphylococcus aureus strain AR0478 (MRSA, CDC Panel)
Experimental: as §1

[21] = tested on: Staphylococcus aureus strain AR0474 (MRSA, CDC Panel)
Experimental: as §1

## CO[C@@]1(NC(=O)Cc2cccs2)C(=O)N2C(C(=O)O)=C(COC(N)=O)CS[C@@H]21 [Cefoxitin, cefoxitin]
[1]; detected CFU 471, cefoxitin 1 ug/mL
  Cefoxitin Concentration 1 ug/mL (indicator phage luminescence signal): 478000 RLU
[1]; detected CFU 471, cefoxitin 2 ug/mL
  Cefoxitin Concentration 2 ug/mL (indicator phage luminescence signal): 95970 RLU
[1]; detected CFU 471, cefoxitin 4 ug/mL
  Cefoxitin Concentration 4 ug/mL (indicator phage luminescence signal): 4068 RLU
[2]; detected CFU 52, cefoxitin 1 ug/mL
  Cefoxitin Concentration 1 ug/mL (indicator phage luminescence signal): 51560 RLU
[2]; detected CFU 52, cefoxitin 2 ug/mL
  Cefoxitin Concentration 2 ug/mL (indicator phage luminescence signal): 34730 RLU
[2]; detected CFU 52, cefoxitin 4 ug/mL
  Cefoxitin Concentration 4 ug/mL (indicator phage luminescence signal): 6803 RLU
[3]; detected CFU 59, cefoxitin 1.8 ug/mL
  Cefoxitin Concentration 1.8 ug/mL (indicator phage luminescence signal): 508 RLU
[3]; detected CFU 406, cefoxitin 1 ug/mL
  Cefoxitin Concentration 1 ug/mL (indicator phage luminescence signal): 18310 RLU
[3]; detected CFU 406, cefoxitin 2 ug/mL
  Cefoxitin Concentration 2 ug/mL (indicator phage luminescence signal): 178 RLU
[3]; detected CFU 406, cefoxitin 4 ug/mL
  Cefoxitin Concentration 4 ug/mL (indicator phage luminescence signal): 196 RLU
[4]; detected CFU 525, cefoxitin 1 ug/mL
  Cefoxitin Concentration 1 ug/mL (indicator phage luminescence signal): 8875 RLU
[4]; detected CFU 525, cefoxitin 2 ug/mL
  Cefoxitin Concentration 2 ug/mL (indicator phage luminescence signal): 172 RLU
[4]; detected CFU 525, cefoxitin 4 ug/mL
  Cefoxitin Concentration 4 ug/mL (indicator phage luminescence signal): 182 RLU
[5]; detected CFU 217, cefoxitin 1 ug/mL
  Cefoxitin Concentration 1 ug/mL (indicator phage luminescence signal): 40760 RLU
[5]; detected CFU 217, cefoxitin 2 ug/mL
  Cefoxitin Concentration 2 ug/mL (indicator phage luminescence signal): 215 RLU
[5]; detected CFU 217, cefoxitin 4 ug/mL
  Cefoxitin Concentration 4 ug/mL (indicator phage luminescence signal): 266 RLU
[6]; detected CFU 75, cefoxitin 1 ug/mL
  Cefoxitin Concentration 1 ug/mL (indicator phage luminescence signal): 6741 RLU
[6]; detected CFU 75, cefoxitin 2 ug/mL
  Cefoxitin Concentration 2 ug/mL (indicator phage luminescence signal): 2477 RLU
[6]; detected CFU 75, cefoxitin 4 ug/mL
  Cefoxitin Concentration 4 ug/mL (indicator phage luminescence signal): 204 RLU
[7]; detected CFU 215, cefoxitin 1 ug/mL
  Cefoxitin Concentration 1 ug/mL (indicator phage luminescence signal): 3502 RLU
[7]; detected CFU 215, cefoxitin 2 ug/mL
  Cefoxitin Concentration 2 ug/mL (indicator phage luminescence signal): 1846 RLU
[7]; detected CFU 215, cefoxitin 4 ug/mL
  Cefoxitin Concentration 4 ug/mL (indicator phage luminescence signal): 179 RLU
[8]
  Cefoxitin Concentration 1.8 ug/mL (indicator phage luminescence signal): 4034 RLU
[9]; detected CFU 95, cefoxitin 1 ug/mL
  Cefoxitin Concentration 1 ug/mL (indicator phage luminescence signal): 245000 RLU
[9]; detected CFU 95, cefoxitin 2 ug/mL
  Cefoxitin Concentration 2 ug/mL (indicator phage luminescence signal): 52910 RLU
[9]; detected CFU 95, cefoxitin 4 ug/mL
  Cefoxitin Concentration 4 ug/mL (indicator phage luminescence signal): 21 RLU
[10]; detected CFU 151, cefoxitin 1 ug/mL
  Cefoxitin Concentration 1 ug/mL (indicator phage luminescence signal): 15430 RLU
[10]; detected CFU 151, cefoxitin 2 ug/mL
  Cefoxitin Concentration 2 ug/mL (indicator phage luminescence signal): 207 RLU
[10]; detected CFU 151, cefoxitin 4 ug/mL
  Cefoxitin Concentration 4 ug/mL (indicator phage luminescence signal): 197 RLU
[11]; detected CFU 940, cefoxitin 1 ug/mL
  Cefoxitin Concentration 1 ug/mL (indicator phage luminescence signal): 40620 RLU
[11]; detected CFU 940, cefoxitin 2 ug/mL
  Cefoxitin Concentration 2 ug/mL (indicator phage luminescence signal): 254 RLU
[11]; detected CFU 940, cefoxitin 4 ug/mL
  Cefoxitin Concentration 4 ug/mL (indicator phage luminescence signal): 582 RLU
[12]; detected CFU 14, cefoxitin 1.8 ug/mL
  Cefoxitin Concentration 1.8 ug/mL (indicator phage luminescence signal): 2694 RLU
[12]; detected CFU 142, cefoxitin 1 ug/mL
  Cefoxitin Concentration 1 ug/mL (indicator phage luminescence signal): 72720 RLU
[12]; detected CFU 142, cefoxitin 2 ug/mL
  Cefoxitin Concentration 2 ug/mL (indicator phage luminescence signal): 19210 RLU
[12]; detected CFU 142, cefoxitin 4 ug/mL
  Cefoxitin Concentration 4 ug/mL (indicator phage luminescence signal): 240 RLU
[13]; detected CFU 171, cefoxitin 1 ug/mL
  Cefoxitin Concentration 1 ug/mL (indicator phage luminescence signal): 9908 RLU
[13]; detected CFU 171, cefoxitin 2 ug/mL
  Cefoxitin Concentration 2 ug/mL (indicator phage luminescence signal): 6497 RLU
[13]; detected CFU 171, cefoxitin 4 ug/mL
  Cefoxitin Concentration 4 ug/mL (indicator phage luminescence signal): 4401 RLU
[14]; detected CFU 165, cefoxitin 1 ug/mL
  Cefoxitin Concentration 1 ug/mL (indicator phage luminescence signal): 8634 RLU
[14]; detected CFU 165, cefoxitin 2 ug/mL
  Cefoxitin Concentration 2 ug/mL (indicator phage luminescence signal): 775 RLU
[14]; detected CFU 165, cefoxitin 4 ug/mL
  Cefoxitin Concentration 4 ug/mL (indicator phage luminescence signal): 240 RLU
[15]; detected CFU 28, cefoxitin 1.8 ug/mL
  Cefoxitin Concentration 1.8 ug/mL (indicator phage luminescence signal): 1941 RLU
[15]; detected CFU 265, cefoxitin 1 ug/mL
  Cefoxitin Concentration 1 ug/mL (indicator phage luminescence signal): 8987 RLU
[15]; detected CFU 265, cefoxitin 2 ug/mL
  Cefoxitin Concentration 2 ug/mL (indicator phage luminescence signal): 3377 RLU
[15]; detected CFU 265, cefoxitin 4 ug/mL
  Cefoxitin Concentration 4 ug/mL (indicator phage luminescence signal): 339 RLU
[16]; detected CFU 134, cefoxitin 1 ug/mL
  Cefoxitin Concentration 1 ug/mL (indicator phage luminescence signal): 52460 RLU
[16]; detected CFU 134, cefoxitin 2 ug/mL
  Cefoxitin Concentration 2 ug/mL (indicator phage luminescence signal): 57660 RLU
[16]; detected CFU 134, cefoxitin 4 ug/mL
  Cefoxitin Concentration 4 ug/mL (indicator phage luminescence signal): 34040 RLU
[17]; detected CFU 221, cefoxitin 1 ug/mL
  Cefoxitin Concentration 1 ug/mL (indicator phage luminescence signal): 10420 RLU
[17]; detected CFU 221, cefoxitin 2 ug/mL
  Cefoxitin Concentration 2 ug/mL (indicator phage luminescence signal): 167 RLU
[17]; detected CFU 221, cefoxitin 4 ug/mL
  Cefoxitin Concentration 4 ug/mL (indicator phage luminescence signal): 188 RLU
[18]; detected CFU 523, cefoxitin 1 ug/mL
  Cefoxitin Concentration 1 ug/mL (indicator phage luminescence signal): 35110 RLU
[18]; detected CFU 523, cefoxitin 2 ug/mL
  Cefoxitin Concentration 2 ug/mL (indicator phage luminescence signal): 22030 RLU
[18]; detected CFU 523, cefoxitin 4 ug/mL
  Cefoxitin Concentration 4 ug/mL (indicator phage luminescence signal): 9007 RLU
[19]; detected CFU 144, cefoxitin 1 ug/mL
  Cefoxitin Concentration 1 ug/mL (indicator phage luminescence signal): 30590 RLU
[19]; detected CFU 144, cefoxitin 2 ug/mL
  Cefoxitin Concentration 2 ug/mL (indicator phage luminescence signal): 188 RLU
[19]; detected CFU 144, cefoxitin 4 ug/mL
  Cefoxitin Concentration 4 ug/mL (indicator phage luminescence signal): 207 RLU
[20]; detected CFU 183, cefoxitin 1 ug/mL
  Cefoxitin Concentration 1 ug/mL (indicator phage luminescence signal): 279700 RLU
[20]; detected CFU 183, cefoxitin 2 ug/mL
  Cefoxitin Concentration 2 ug/mL (indicator phage luminescence signal): 73090 RLU
[20]; detected CFU 183, cefoxitin 4 ug/mL
  Cefoxitin Concentration 4 ug/mL (indicator phage luminescence signal): 1519 RLU
[21]; detected CFU 477, cefoxitin 1 ug/mL
  Cefoxitin Concentration 1 ug/mL (indicator phage luminescence signal): 3449 RLU
[21]; detected CFU 477, cefoxitin 2 ug/mL
  Cefoxitin Concentration 2 ug/mL (indicator phage luminescence signal): 2235 RLU
[21]; detected CFU 477, cefoxitin 4 ug/mL
  Cefoxitin Concentration 4 ug/mL (indicator phage luminescence signal): 1684 RLU
